Measurements as given in patent publication US7973036B2, “2-methyl-5-imino-benzo[D][1 ,3]oxazin[5-B]pyrazole compound, preparation and use thereof” (Qingdao Huanghai Pharmaceutical Co., Ltd, priority 2008, dated 2011).
Entries after “also recorded” stand apart in the source; their conditions may differ.

Assays:
[1] = test system: cerebral ischemia reperfusion model of middle cerebral artery occlusion (MCAO); experiment: Cerebral ischemia reperfusion model of middle cerebral artery occlusion (MCAO), suture method; type: in vivo, SD rats; details: for Variation value of water content in brain (%) / brain tissue MDA content / brain tissue SOD activity / Scores of neurological defect symptoms / Cerebral infarction area (%) / Cerebral infarction area (%) (table title: brain injury): X ± SD; for Cerebral infarction area (%): Table 5; for Cerebral infarction area (%) (table title: brain injury): Table 6, brain injury
Description: Cerebral ischemia reperfusion model of middle cerebral artery occlusion (MCAO) was established in SD rats using the suture method of internal carotid artery. Test rats were administrated once 0.5 hours after ischemia reperfusion, then once every 2 hours, for totally three times. Neurological defect symptoms were observed 48 hours after cerebral ischemia.

[2] = Anti-DPPH free radical test (spectrophotometry at 517 nm); type: biochemical; details: for DPPH free radical scavenging ability with the reaction time / Hydrolysis in the reaction liquid with the reaction time: 30-150 min; for Hydrolysis in the reaction liquid with the reaction time: 95% ethanol, pH 7.5, room temperature; for DPPH free radical scavenging ability E, one value per sample (mean of the five concentrations) / DPPH free radical scavenging ability V / DPPH free radical scavenging ability E / DPPH free radical scavenged by one molecular of compound / DPPH free radical scavenging ability, comparison between samples: 30 min
Excerpt: Anti-DPPH Free Radical Test
2,2-diphenyl-1-picrylhydrazyl (DPPH) free radical spectrophotometry is a simple method for screening antioxidants, the principle of which is using the characteristic absorption peak of DPPH solution at 517 nm. When free radical scavengers existed, single electron pairing between free radical scavenger and DPPH allowed the absorption of DPPH disappeared, and its decoloring degree and accepted electron number present as quantitative relation, and the antioxidant activity of samples can be evaluated through the amount of cleared DPPH, so the spectrophotometry can be used for quantitative analysis.
DPPH was accurately weighed and placed in a volumetric flask, and diluted to 100 ml with 95% ethanol. The absorbance (A) of DPPH was measured at 517 nm.
DPPH standard curve was shown in FIG. 1, the linear equation of which was as follows: y=0.219x−0.0285; r=0.9994.
DPPH was accurately weighed and placed in a 100 ml volumetric flask, and diluted to 100 ml with 95% ethanol to produce the DPPH solution.
Preparation of Test Drug Solution: the Test Drug was Accurately Weighed and Placed in a 100 ml volumetric flask, dissolved with 20 ml of 95% ethanol, adjusted to pH 7.5 and diluted to 100 ml with 95% ethanol.
5.0 ml of DPPH solution and 2.0 ml test drug solution were taken and placed in a 10 ml volumetric flask, fully shaken at room temperature for a certain time followed by determination of absorption value (A) at 517 nm.
Formula for calculating DPPH free radical scavenging ability of test drug, E (mgDPPH/mg):
Formula for calculating DPPH free radical scavenging ability of test drug, V (mmolDPPH/mmol): […]

[3] = TR high dose group (6.0 mg/kg), P<0.001
[4] = TR 1.5 mg/kg, three administrations, n=7
[5] = TR 3.0 mg/kg, three administrations, n=8
[6] = TR 6.0 mg/kg, three administrations, n=8
[7] = test drug C 0.152 (Edaravone), 0.153 (Compound 1, 2), 0.159 (Compound 3) mg/100 ml
[8] = test drug C 0.304 (Edaravone), 0.305 (Compound 1, 2), 0.318 (Compound 3) mg/100 ml
[9] = test drug C 0.608 (Edaravone), 0.610 (Compound 1, 2), 0.635 (Compound 3) mg/100 ml
[10] = test drug C 1.215 (Edaravone), 1.220 (Compound 1, 2), 1.270 (Compound 3) mg/100 ml
[11] = test drug C 2.430 (Edaravone), 2.440 (Compound 1, 2), 2.540 (Compound 3) mg/100 ml
[12] = Nimodipine 0.4 mg/kg, three administrations, n=10

## Cc1cc2oc(=N)c3ccccc3n2n1 [TR, 2-methyl-5-imino-benzo[d][1,3]oxazin[5-b]pyrazole]
[1]; TR 1.5 mg/kg, n=7
  Variation value of water content in brain (%): 2.1 ± 1.08 %
  brain tissue MDA content: 6.6 ± 1.30 nmol/mgprot
  brain tissue SOD activity: 107.1 ± 15.5 U/mgprot
[1]; TR 3.0 mg/kg, n=8
  Variation value of water content in brain (%): 2.0 ± 1.01 %
  brain tissue MDA content: 6.5 ± 0.81 nmol/mgprot
  brain tissue SOD activity: 121.6 ± 16.8 U/mgprot
[1]; TR 6.0 mg/kg, n=9
  Variation value of water content in brain (%): 1.2 ± 0.55 %
  brain tissue MDA content: 5.0 ± 1.10 nmol/mgprot
  brain tissue SOD activity: 132.7 ± 21.0 U/mgprot
[1]; [3]
  MDA content compared with the model group: significantly decreased
  brain injury compared with the model group: significantly reduced
  cerebral infarction area compared with the model group: significantly reduced
  water content in brain compared with the model group: significantly reduced
[1]; TR high dose group (6.0 mg/kg), P=0.007
  SOD activity compared with the model group: significantly increased
[1]; TR low dose group (1.5 mg/kg), P=0.044
  cerebral infarction area compared with the model group: significantly reduced
[1]; TR low dose group (1.5 mg/kg), P=0.086
  water content in brain compared with the model group: No obvious difference
[1]; TR low dose group (1.5 mg/kg), P=0.211
  MDA content compared with the model group: No obvious difference
[1]; TR low dose group (1.5 mg/kg), P=0.826
  SOD activity compared with the model group: No obvious difference
[1]; TR medium dose group (3.0 mg/kg), P<0.001
  cerebral infarction area compared with the model group: significantly reduced
[1]; TR medium dose group (3.0 mg/kg), P=0.001
  brain injury compared with the model group: significantly reduced
[1]; TR medium dose group (3.0 mg/kg), P=0.039
  water content in brain compared with the model group: significantly reduced
[1]; TR medium dose group (3.0 mg/kg), P=0.141
  MDA content compared with the model group: No obvious difference
[1]; TR medium dose group (3.0 mg/kg), P=0.157
  SOD activity compared with the model group: No obvious difference
[1]; Table 4 series, TR 1.5 mg/kg, three administrations, 48 hours after cerebral ischemia, n=7
  Scores of neurological defect symptoms: 1.6 ± 0.75
[1]; Table 4 series, TR 3.0 mg/kg, three administrations, 48 hours after cerebral ischemia, n=8
  Scores of neurological defect symptoms: 1.1 ± 0.44
[1]; Table 4 series, TR 6.0 mg/kg, three administrations, 48 hours after cerebral ischemia, n=8
  Scores of neurological defect symptoms: 1.0 ± 0.46
[1]; Table 4 series, TR high dose group (6.0 mg/kg), P<0.001
  neurological defect symptoms compared with the model group: significantly reduced
[1]; Table 4 series, TR low dose group (1.5 mg/kg), P=0.001
  neurological defect symptoms compared with the model group: significantly reduced
[1]; Table 4 series, TR medium dose group (3.0 mg/kg), P<0.001
  neurological defect symptoms compared with the model group: significantly reduced
[1]; [4]
  Cerebral infarction area (%): 26.5 ± 13.24 %
  Cerebral infarction area (%) (table title: brain injury): 33.6 ± 16.08 %
[1]; [5]
  Cerebral infarction area (%): 17.4 ± 10.05 %
  Cerebral infarction area (%) (table title: brain injury): 22.7 ± 12.10 %
[1]; [6]
  Cerebral infarction area (%): 6.7 ± 6.30^#& %
  Cerebral infarction area (%) (table title: brain injury): 8.1 ± 5.68^#& %
[1]; Table 7 series, TR 1.5 mg/kg, n=7
  Scores of neurological defect symptoms: 1.9 ± 0.84
[1]; Table 7 series, TR 3.0 mg/kg, n=8
  Scores of neurological defect symptoms: 1.8 ± 0.70
[1]; Table 7 series, TR 6.0 mg/kg, n=9
  Scores of neurological defect symptoms: 1.0 ± 0.58
[1]; Table 7 series, TR high dose group (6.0 mg/kg), P<0.001
  neurological defect symptoms compared with the model group: significantly relieved
[1]; Table 7 series, TR low dose group (1.5 mg/kg), P=0.001
  neurological defect symptoms compared with the model group: significantly relieved
[1]; Table 7 series, TR medium dose group (3.0 mg/kg), P<0.001
  neurological defect symptoms compared with the model group: significantly relieved
[1]; improvement of neurological defect symptoms, infarction area, brain injury, brain edema, lipid peroxidation in cerebral ischemia-reperfusion animals
  onset dose: 3 mg/kg
[2]
  DPPH free radical scavenging ability with the reaction time: gradually increased
  Hydrolysis in the reaction liquid with the reaction time: gradually hydrolyzed into Compound 3
  DPPH free radical scavenging ability E, one value per sample (mean of the five concentrations): 0.419 mgDPPH/mg
  DPPH free radical scavenging ability V: 0.212 mmolDPPH/mmol
[2]; [7]
  DPPH free radical scavenging ability E: 0.409 mgDPPH/mg
[2]; [8]
  DPPH free radical scavenging ability E: 0.368 mgDPPH/mg
[2]; [9]
  DPPH free radical scavenging ability E: 0.310 mgDPPH/mg
[2]; [10]
  DPPH free radical scavenging ability E: 0.561 mgDPPH/mg
[2]; [11]
  DPPH free radical scavenging ability E: 0.445 mgDPPH/mg

## CC1=NN(c2ccccc2)C(=O)C1 [Edaravone, edaravone, reference compound]
[2]
  DPPH free radical scavenged by one molecular of compound: 1.657 molecular of DPPH free radical
  DPPH free radical scavenging ability E, one value per sample (mean of the five concentrations): 3.752 mgDPPH/mg
  DPPH free radical scavenging ability V: 1.657 mmolDPPH/mmol
[2]; [7]
  DPPH free radical scavenging ability E: 3.222 mgDPPH/mg
[2]; [8]
  DPPH free radical scavenging ability E: 3.195 mgDPPH/mg
[2]; [9]
  DPPH free radical scavenging ability E: 3.322 mgDPPH/mg
[2]; [10]
  DPPH free radical scavenging ability E: 4.785 mgDPPH/mg
[2]; [11]
  DPPH free radical scavenging ability E: 4.237 mgDPPH/mg

## 2-methyl-benzo[d][1,3]oxazin[5-b]pyrazole-5-one [Compound 1]
[2]
  DPPH free radical scavenging ability with the reaction time: gradually increased
  Hydrolysis in the reaction liquid with the reaction time: gradually hydrolyzed into Compound 3
  DPPH free radical scavenging ability E, one value per sample (mean of the five concentrations): 1.687 mgDPPH/mg
  DPPH free radical scavenging ability V: 0.856 mmolDPPH/mmol
  DPPH free radical scavenging ability, comparison between samples: one-eighth of Compound 3
[2]; [7]
  DPPH free radical scavenging ability E: 1.650 mgDPPH/mg
[2]; [8]
  DPPH free radical scavenging ability E: 1.481 mgDPPH/mg
[2]; [9]
  DPPH free radical scavenging ability E: 1.252 mgDPPH/mg
[2]; [10]
  DPPH free radical scavenging ability E: 2.262 mgDPPH/mg
[2]; [11]
  DPPH free radical scavenging ability E: 1.792 mgDPPH/mg
[2]; at 150 min
  DPPH free radical scavenging ability, comparison with Compound 3: equivalent with Compound 3

## COCCOC(=O)C1=C(C)NC(C)=C(C(=O)OC(C)C)C1c1cccc([N+](=O)[O-])c1 (centres unmarked) [Nimodipine, nimodipine, reference compound]
[1]; Nimodipine 0.4 mg/kg, n=7
  Variation value of water content in brain (%): 1.6 ± 0.59 %
  brain tissue MDA content: 7.6 ± 1.28 nmol/mgprot
  brain tissue SOD activity: 114.8 ± 16.4 U/mgprot
[1]; Table 4 series, Nimodipine 0.4 mg/kg, three administrations, 48 hours after cerebral ischemia, n=10
  Scores of neurological defect symptoms: 1.2 ± 0.41
[1]; [12]
  Cerebral infarction area (%): 6.7 ± 6.30^#& %
  Cerebral infarction area (%) (table title: brain injury): 12.8 ± 12.09^#& %
[1]; Table 7 series, Nimodipine 0.4 mg/kg, n=7
  Scores of neurological defect symptoms: 1.3 ± 0.86

## Cc1cc(=O)n(-c2ccccc2C#N)[nH]1 [Compound 3, 1-(2-cyanophenyl)-3-methylpyrazol-5-one]
[2]
  DPPH free radical scavenged by one molecular of compound: 1.942 molecular of DPPH free radical
  DPPH free radical scavenging ability E, one value per sample (mean of the five concentrations): 3.510 mgDPPH/mg
  DPPH free radical scavenging ability V: 1.942 mmolDPPH/mmol
  DPPH free radical scavenging ability, comparison between samples: the largest; also recorded: slightly stronger than Edaravone
[2]; [7]
  DPPH free radical scavenging ability E: 3.067 mgDPPH/mg
[2]; [8]
  DPPH free radical scavenging ability E: 3.215 mgDPPH/mg
[2]; [9]
  DPPH free radical scavenging ability E: 2.770 mgDPPH/mg
[2]; [10]
  DPPH free radical scavenging ability E: 4.032 mgDPPH/mg
[2]; [11]
  DPPH free radical scavenging ability E: 4.464 mgDPPH/mg
